# Measured values reported in a melting point compilation (Tetko et al.; mined from patent text by program, amines drawn as free bases though some values may be those of a salt).
row,melting point,SMILES
1,90 to 92 °C,CC(C)NC(=O)C(C)(F)c1ccc(OS(=O)(=O)C(F)(F)F)cc1 (stereo unspecified)
2,169 to 170 °C,Nc1cc(-c2ccc(Cl)c(Cl)c2)[nH]n1
3,157 to 159 °C,COc1ccc(C(C#Cc2ccccc2)CN(C)C(=O)C(=O)O)cc1OC1CCCC1 (racemic)
4,92 to 96 °C,CCC1(CC)C(=O)N(C(C)(C)C)CC(C)(C)N1C(C)c1ccc(OC(C)=O)cc1 (stereo unspecified)
5,197 to 200 °C,O=C(O)c1ccc(NCc2ccc(F)cc2)cn1
6,98 to 100 °C,COC(=O)CCCCNC(=O)[C@H](Cc1ccccc1)NC(=O)OC(C)(C)C
7,233 to 234 °C,CCCOc1ccc(S(C)(=O)=O)cc1-c1nc2c(CC)n(CC3CC3)nc2c(=O)[nH]1
8,95 to 98 °C,CCCCN(Cc1ccc(-c2ccccc2-c2nc(=O)o[nH]2)cc1)c1ncccc1C(=O)O
9,> 200 °C,CCCCc1nc2c(n1Cc1ccc(-c3ccccc3S(N)(=O)=O)cc1)C(=NO)CCS2
10,88 to 100 °C,CCOC(=O)c1cccc(-c2ccc3c(c2)C(O)CCC3)c1 (stereo unspecified)
11,178 to 179 °C,CCCCC(CC)C(=O)NC(=S)Nc1nc(-c2ccc3c(c2)CCCC3)cs1 (stereo unspecified)
12,121 to 123 °C,CCCCCCCCn1c(C)cc2ccccc21
13,88.5 to 102 °C,CCCCCN(CCC12CC3CC(CC(C3)C1)C2)C(=O)NCc1cccnc1
14,300 to 301 °C,O=C1CCCN1CCn1c(=O)[nH]c2ncc(-c3ccc(-c4nc[nH]n4)cc3)nc21
15,187 °C,CCCc1nc(Sc2ccc(OC)cc2)c(CC(=O)O)n1Cc1cc2c(cc1Cl)OCO2
16,107 °C,CCCOc1ccc(OC)c(-c2csc(NC(=O)c3ccc(OCC(OCC)OCC)cc3)n2)c1
17,94 to 95 °C,CC(=O)N1CCC(C(=O)Nc2ccc(-n3nc(C(F)(F)F)cc3C(F)(F)F)cc2)CC1
18,137 to 140 °C,COC(=O)C(C(=O)OC)c1cccc2c1NC(=O)C2=O
19,136 to 138 °C,OCc1csc(N(c2ccccc2)c2ccccc2)n1

row,melting point,SMILES
1,121 to 123 °C,CCCCOC(=O)CNC(=O)c1nc2ccc(Cl)cc2cc1OCc1ccccc1
2,63 to 65 °C,CC(C)(Br)C(=O)OCCN1C(=O)c2ccccc2C1=O
3,138 to 139 °C,O=C1CCN(c2ccc(CNC(=O)c3cccnc3Oc3ccc(F)cc3)cc2)CC1
4,93 °C,Cc1nc(COC(=O)c2cccnc2C#N)cs1
5,115 to 117 °C,CC(C)CC(NC(=O)N1CCCCCC1)C(=O)NC(Cc1ccc(C#Cc2ccccc2)cc1)C(=O)NC(C)(C)C (stereo unspecified)
6,42 °C,CNCCc1ccc2[nH]nc(S(=O)(=O)c3ccccc3)c2c1
7,103 to 105 °C,COc1cc(NC(C)CCCN2C(=O)c3ccccc3C2=O)c2ncccc2c1N(C)C (stereo unspecified)
8,129 to 130 °C,CC(C)n1nc(-c2c(OCCF)nc(N)nc2-c2ccccc2)ccc1=O
9,220 to 222 °C,CC1(c2ccc(O)cc2)Cc2cc(OCC(=O)O)c(Cl)c(Cl)c2C1=O (stereo unspecified)
10,162 to 165 °C,CCc1ccc2c(c1)C=Cc1cc(CC)ccc1C2c1cn(Cc2nc(C(=O)O)cs2)c(=O)[nH]c1=S
11,142 °C,COc1ccc(C2=C(C=O)c3ccc(OC)cc3CC2)cc1
12,145 to 146 °C,C#CCN(Cc1cc2c(=O)n(C)c(CN3CCN(CC)CC3)nc2cc1Cl)c1ccc(C(=O)OC(C)(C)C)cc1
13,184 to 186 °C,CC(C)c1cc(C(=O)CNc2ccc(C(=O)O)cc2)oc1C(C)C
14,103 to 106 °C,CSCC(C)Nc1nccc(-c2ccnc(Cl)c2)n1 (stereo unspecified)
15,86 to 87 °C,CCOC(=O)c1cc(-c2ccc(OCCO[Si](C)(C)C(C)(C)C)cc2)n(-c2ccc(OC)cc2)n1
16,161 to 163 °C,COc1ccc(-c2cc(=Nc3c(C)cc(C)cc3C)n(C)c(N3CC=CCC3)n2)cc1OC
17,117 to 135 °C,CCCCc1nc(Cl)c(C=O)n1Cc1cccc2c1ncn2-c1ccccc1C#N
18,135 °C,Fc1ccc(CN(C(=S)Nc2ccccc2)C2CCCC2)cc1

# More lines, now with the values behind:
row,SMILES,melting point
1,CC(CN(C)S(C)(=O)=O)n1nnc2cc3c(=O)n(C4CC4)nnc3cc2c1=O (stereo unspecified),170 to 172 °C
2,NC(=O)CN1CC2C=CC1C2 (stereo unspecified),74 to 96 °C
3,C#Cc1ccc(C2SCC(C(C)(C)C)CS2)cc1 (stereo unspecified),149 °C
4,O=C1CN2Cc3c(O)cccc3N=C2N1,> 280 °C
5,CCCCCCCC/C=C\c1ccccc1/C=C/C(C)=C/C=C/C(C)=C/C(=O)O,103 to 105 °C
6,CN1CCN(CC(=O)NN)CC1,87 to 89 °C
7,CC(C)Cn1nc(-c2ccccc2)c(-c2ccccc2)c1CCl,92 °C
8,Cn1c(S(C)(=O)=O)nc2ccccc21,131 to 132 °C
9,COc1ccc(-n2c3ccccc3c3cc(C=C(C#N)c4cc(F)cc(F)c4)ccc32)cc1,200 to 203 °C
10,ClC1=NC(Cl)(Cl)N=C1Cl,85 to 87 °C
11,COc1cc(-c2ccc(C#N)cc2)c2nc(-c3ccc(OC)c(F)c3)cc(O)c2c1,248 to 250 °C
12,Cc1cc(CO)cc(Oc2nc(Cl)nc(Cl)c2C(C)C)c1,140 to 141 °C
13,CC(=O)c1ccc(Nc2cccc(-c3ccccn3)c2)c(N)c1,145 to 146 °C
14,COc1cccc(-c2cnc3c(-c4cc(-c5ccccc5)cs4)cnn3c2O)c1,> 300 °C
15,C/C(=C/C(=O)O)c1ccn(-c2c(C)cccc2C)c1,78 to 80 °C
16,COC(=O)c1cc(N)c(Oc2ccccc2)c(N)c1,140 to 142 °C
17,Nc1cc(N2CC(COc3ccccc3)OC2=O)ccn1 (stereo unspecified),191 to 192 °C
18,Nc1ccc(CNC(=O)OCc2ccccc2)cc1,60 to 64 °C
19,CC(C)c1ccccc1N1/C(=N\N=C/c2ccc(-c3ncn(-c4ccc(OC(F)(F)F)cc4)n3)cc2)SCC1(C)O (stereo unspecified),114 to 116 °C
20,Cc1nn(C)c2c(=O)n(C)c(C)nc12,190 to 192 °C
21,CN(C)C1CCC2(CC1)Nc1cc(Cl)c(S(N)(=O)=O)cc1S(=O)(=O)N2 (stereo unspecified),255 °C
22,CN1C(=S)N(c2ccc(C#N)c(C(F)(F)F)c2)C(=O)C12CCCC2,162 to 163 °C

row,SMILES,melting point
1,O=[N+]([O-])c1ccc(C(O)C(COc2ccccc2)N2CCC(Cc3ccccc3)CC2)cc1 (stereo unspecified),159 to 162 °C
2,CC1CC2C3CCC4=CC(=O)C=CC4(C)C3C(O)CC2(C)C1C(=O)CI (stereo unspecified),153 °C
3,Cn1ccc(C(=O)O)c(OCc2ccccc2)c1=O,129 to 130 °C
4,COC(=O)CCCCSCCCCCCCCCCCOS(=O)(=O)c1ccc(C)cc1,54 °C
5,CCCCCCCCCCCCCCOc1ccc(C(C)=O)o1,70 to 72 °C
6,O=C(OCCN1CCNC1=O)c1ccccc1,130 to 132 °C
7,O=S(=O)(c1nc(-c2ccccc2)c(-c2ccccc2)n1COCc1ccccc1)C(F)(F)C(F)F,97.5 to 98.5 °C
8,COc1cc2[nH]c(=O)n(CCCS)c(=O)c2cc1OC,236 °C
9,CCOc1nc2cccc(C(=O)O)c2n1Cc1ccc(-c2ccccc2-c2nnnn2C(c2ccccc2)(c2ccccc2)c2ccccc2)cc1,168 to 170 °C
10,CCOC(=O)c1cnc2c(NC(=O)c3c(Cl)cccc3Cl)cccc2c1CBr,199 °C
11,O=Cc1ccc(-c2ccc3ncnc(Nc4ccc(OCc5cccc(F)c5)c(Cl)c4)c3c2)cc1,237 to 238 °C
12,OCc1ccc(OCCF)cc1,37.3 to 38 °C
13,C[Si](C)(C)c1cccc(C[C@@H]2N[C@@H](c3ccccc3)[C@@H](c3ccccc3)OC2=O)c1,94 to 95 °C
14,CCOc1ccc2[nH]c(=O)n(-c3ccccc3Cl)c2c1,97 °C
15,CCOc1c(C(N)=O)n(-c2ccccc2)c2ccc(OC)cc12,143 to 144 °C
16,Nc1ncnc2cc(CCl)ccc12,> 300 °C
17,COc1ccc(Cl)c(Oc2c(C)nc(N3CCOCC3)nc2O)c1,252 °C
18,CC(=O)c1ccc(Br)c(S(N)(=O)=O)c1,161 °C
19,O=C(N1CCC(n2ccc3ccccc32)CC1)C(F)(F)F,130 to 132 °C
20,NC(=O)c1cc(C(=O)c2ccccc2)ccc1[N+](=O)[O-],244 °C
21,O=C(NCCCC(F)(F)F)Oc1ccc([N+](=O)[O-])cc1,118 to 120 °C
22,COc1cc(Oc2ccc(C(=O)N(C3CCCCC3)C3CCCC3)cc2C)cc(OC)c1OC,181 to 182 °C

row,SMILES,melting point
1,COc1ccc2c3c1OC1C(O)C(CO)(CO)CC4C(C2)N(C)CCC341 (stereo unspecified),> 265 °C
2,COC(=O)N(COc1ccc(Cl)cc1Cl)c1ccc(Cl)cc1,70 to 80 °C
3,CC(=NO)C1CCC2C3CC=C4C(C)(C)C(=O)C(C#N)CC4(C)C3CCC12C (stereo unspecified),190 to 192 °C
4,O=c1cc(O)c2ccc(F)cc2o1,229 to 230 °C
5,N=C(N)Cc1ccccc1-n1cnc2cnc3ccc(-c4ccccc4)cc3c21,261 to 263 °C
6,CC1CCN(c2nccc(Oc3ccc(NC(=O)c4cc(F)cc(N5CCCCC5)c4)c4ccccc34)n2)CC1,145 to 146 °C
7,CCOc1cc(Cc2cnc(N)nc2N)cc2c1OC(C)(C)C=C2C(C)(O)CC (stereo unspecified),127 to 128 °C
8,CC1C(=O)N(c2cc(Cl)cc(Cl)c2)CS1=O (stereo unspecified),146 to 149 °C
9,CC(=O)Nc1c(C#N)c(OC(C)=O)c(C(C)=O)n1C,140 to 141 °C
10,O=C(c1ccccc1Nc1ccc(O)cc1)N1CCOCC1,214 to 216 °C
11,Cc1nn(C2CCCC2O)c(N)c1C#N (stereo unspecified),157 to 159 °C
12,OC(c1ccc(Br)cc1)(c1ccc(Br)cc1)c1ncc[nH]1,192 to 194 °C
13,CC(=O)OC1CCC2C3CCC4=CC(=O)C(I)CC4(C)C3CCC12C (stereo unspecified),92 °C
14,O=[N+]([O-])c1cccc(OCc2ncc3ccccc3n2)c1,125 to 127 °C
15,CNC(=O)c1cc2ccccc2c(-c2ccccc2I)n1,167 to 168 °C
16,CN(C)CCOc1ccc2c(c1)Cc1cc(OCCN(C)C)ccc1O2,85 to 86.5 °C
17,Oc1cccc(Cc2ccc3ccccc3c2O)c1,100 to 101 °C
18,N#Cc1ccc(CC2CC3CCC(C2)N3c2ccccc2)c2ccccc12 (stereo unspecified),103 to 104 °C
19,CCOn1c(SC)n[nH]c1=O,99 °C
20,O=S1N=C(NCCCN(Cc2ccccc2)c2ccccn2)C(NCc2ccncc2)=N1 (stereo unspecified),140 to 142 °C
